Source: ChEMBL document CHEMBL1138757, “Synthesis and photosensitizing efficacy of isomerically pure bacteriopurpurinimides” (2004)

Experiments:
Mus musculus [1] = experiment: In vivo photosensitizing efficacy when evaluated in mice assessed on day 90; assay type: functional
Mus musculus [2] = species: Mus musculus; experiment: In vitro Efficacy to destroy the RIF tumor cells by MTT assay when incubated for 3 hr at drug concentration of 1.5 uM and exposed to laser light (780nm,16J/cm2); assay type: functional

Compound	Efficacy (Mus musculus [1])	Efficacy (Mus musculus [2])
CCCCCCCO[C@@H](C)C1=C(C)c2cc3[nH]c(c4c5[nH]c(cc6nc(cc1n2)[C@H](C)[C@H]6CC)c(C)c5C(=O)N(CCCCCC)C4=O)[C@@H](CCC(=O)OCCC)[C@@H]3C	2 No. of mice tumor free	100%
CCCCCCCO[C@H](C)C1=C(C)c2cc3[nH]c(c4c5[nH]c(cc6nc(cc1n2)[C@H](C)[C@H]6CC)c(C)c5C(=O)N(CCCCCC)C4=O)[C@@H](CCC(=O)OCCC)[C@@H]3C	6 No. of mice tumor free	100%
